Data from patent publication US9675616B2, “Arylaminoalcohol-substituted 2,3-dihydroimidazo[1,2-C]quinolines” (BAYER INTELLECTUAL PROPERTY GMBH, priority 2010, dated 2017).

How the values were obtained:
[1] = target: PI3Kα (complex of human p110α and human p85α) (Homo sapiens (Human), UniProt P42336); assay: PI3Kα kinase assay (HTRF-based PI3K inhibition assay); conditions: 10 μM ATP, 10 μM PIP2; average value; read-out: average IC50 in the PI3K alpha biochemical assay
Description: Determination of % Inhibition and IC50 Values of Compounds in PI3Kα Kinase Assay
PI3Kα inhibitory activity of compounds of the present invention was quantified employing the HTRF-based PI3K inhibition assay as described below.
(§1) Chemicals and Assay Materials
(§2) As reagents for the kinase reaction itself and the quantification of the reaction product, the PI3-Kinase HTRF Assay kit from Millipore (#33-017) was used. With this kit the phosphatidylinositol 3,4,5-trisphosphate (PIP3) generated in the kinase reaction is detected by displacement of a biotinylated ligand from an energy transfer complex consisting of a Europium-labeled anti-GST monoclonal antibody, a GST-tagged PH domain, biotinylated PIP3 and Streptavidin-Allophycocyanin (APC).
The amount of PI3Kα was chosen to have the enzyme reaction in the linear range and depended on the activity of the individual lot, typical concentrations in assay were in the range of 90 ng/mL. […]
The reaction was stopped by the addition of 1 μL of an stop solution (containing the biotinylated PIP3 used as a tracer), then 1 μL detection mix (containing a Europium-labeled anti-GST monoclonal antibody, a GST-tagged PH domain, and Streptavidin-Allophycocyanin) was added and resulting mixture was incubated 3 h at 22° C. to allow the formation of complexes between the detection reagents and either the PIP3 generated in the kinase reaction, or the biotinylated PIP3 added with the stop solution. Subsequently, the amount of energy transfer complex consisting of a Europium-labeled anti-GST monoclonal antibody, a GST-tagged PH domain, biotinylated PIP3 and Streptavidin-Allophycocyanin (APC) was evaluated by measurement of the resonance energy transfer from the Europium-labeled anti-GST monoclonal antibody to the Streptavidin-Allophycocyanin. Therefore, the fluorescence emissions at 620 nm and 665 nm after excitation at 350 nm were measured using a TR-FRET reader, e.g., a Pherastar (BMG Labtechnologies, Offenburg, Germany) or a Viewlux (Perkin-Elmer). […]

[2] = target: PI3Kβ (complex of human p110β and human p85α) (Homo sapiens (Human), UniProt P42338); assay: PI3Kβ kinase assay (HTRF based PI3K inhibition assay); assay type: biochemical; conditions: for IC50: 10 μM ATP, 10 μM PIP2, average value, read-out: average IC50 in the PI3K beta biochemical assay; for PI3K beta average IC50/PI3K alpha average IC50: ratio of beta IC50 to alpha IC50 (isoform balance)
Sequence of PI3Kβ (complex of human p110β and human p85α) (P42338 whole entry, canonical isoform): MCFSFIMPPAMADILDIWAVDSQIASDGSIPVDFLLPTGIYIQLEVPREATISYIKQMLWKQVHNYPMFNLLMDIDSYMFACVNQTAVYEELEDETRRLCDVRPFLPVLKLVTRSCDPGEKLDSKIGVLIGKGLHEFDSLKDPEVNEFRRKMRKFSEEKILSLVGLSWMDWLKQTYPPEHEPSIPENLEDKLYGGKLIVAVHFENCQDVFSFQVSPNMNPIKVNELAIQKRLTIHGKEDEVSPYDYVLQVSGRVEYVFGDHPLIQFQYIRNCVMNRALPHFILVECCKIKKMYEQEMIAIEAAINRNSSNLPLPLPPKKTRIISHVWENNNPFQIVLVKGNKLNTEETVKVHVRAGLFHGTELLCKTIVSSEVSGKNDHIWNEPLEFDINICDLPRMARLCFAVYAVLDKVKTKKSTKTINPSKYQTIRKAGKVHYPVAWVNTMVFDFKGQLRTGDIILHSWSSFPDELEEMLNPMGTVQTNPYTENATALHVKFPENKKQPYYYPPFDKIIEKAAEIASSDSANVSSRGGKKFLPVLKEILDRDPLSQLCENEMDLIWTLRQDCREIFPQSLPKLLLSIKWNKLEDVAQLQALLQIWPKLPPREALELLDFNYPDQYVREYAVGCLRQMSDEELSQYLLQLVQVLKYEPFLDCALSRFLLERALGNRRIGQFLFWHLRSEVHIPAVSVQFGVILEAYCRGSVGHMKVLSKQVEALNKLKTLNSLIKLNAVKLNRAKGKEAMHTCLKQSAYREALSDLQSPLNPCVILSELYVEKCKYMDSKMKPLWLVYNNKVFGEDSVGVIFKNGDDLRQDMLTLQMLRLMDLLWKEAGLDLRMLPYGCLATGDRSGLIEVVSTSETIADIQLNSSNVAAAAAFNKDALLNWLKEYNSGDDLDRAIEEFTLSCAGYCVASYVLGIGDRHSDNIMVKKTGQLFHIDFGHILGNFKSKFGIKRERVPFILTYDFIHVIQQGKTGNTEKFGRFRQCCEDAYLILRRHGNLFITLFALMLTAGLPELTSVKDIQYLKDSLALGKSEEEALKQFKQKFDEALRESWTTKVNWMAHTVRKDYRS
Sequence of PI3Kβ (complex of human p110β and human p85α) (P27986 whole entry partner, canonical isoform): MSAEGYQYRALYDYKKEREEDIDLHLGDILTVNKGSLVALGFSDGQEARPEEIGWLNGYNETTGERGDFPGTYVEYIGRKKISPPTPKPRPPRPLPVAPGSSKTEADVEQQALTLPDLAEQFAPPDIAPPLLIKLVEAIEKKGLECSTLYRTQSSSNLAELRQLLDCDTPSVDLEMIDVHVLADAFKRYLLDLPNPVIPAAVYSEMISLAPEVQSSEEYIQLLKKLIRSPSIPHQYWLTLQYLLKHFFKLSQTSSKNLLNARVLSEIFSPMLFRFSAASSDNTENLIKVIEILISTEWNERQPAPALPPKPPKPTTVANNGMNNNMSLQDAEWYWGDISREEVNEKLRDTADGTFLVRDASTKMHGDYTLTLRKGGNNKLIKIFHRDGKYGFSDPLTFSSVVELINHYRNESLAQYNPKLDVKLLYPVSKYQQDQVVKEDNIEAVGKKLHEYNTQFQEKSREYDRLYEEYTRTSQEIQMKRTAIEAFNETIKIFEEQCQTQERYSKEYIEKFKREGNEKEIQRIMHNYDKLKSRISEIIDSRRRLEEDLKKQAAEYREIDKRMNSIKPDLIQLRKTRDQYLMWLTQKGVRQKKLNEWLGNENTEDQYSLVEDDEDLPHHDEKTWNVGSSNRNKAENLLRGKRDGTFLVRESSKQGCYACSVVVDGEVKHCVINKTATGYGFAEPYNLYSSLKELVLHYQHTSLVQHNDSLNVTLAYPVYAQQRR
Description: Determination of % Inhibition and IC50 Values of Compounds in PI3Kβ Kinase Assay
PI3Kβ inhibitory activity of compounds of the present invention was quantified employing the HTRF based PI3K inhibition assay as described below.
as §1, §2
For the assay 50 nL of a 80-fold concentrated solution of the test compound in DMSO was pipetted into a black low volume 384-well microtiter plate (Greiner Bio-One, Frickenhausen, Germany), 3 μl of a solution of PI3Kβ and phosphatidylinositol-4,5-bisphosphate (PIP2, 13.8 μM=>final conc. in 4 μl reaction volume=10 μM) in 1× reaction buffer (exact composition not disclosed by the vendor) were added and the mixture was incubated for 15 min at 22° C. to allow pre-binding of the test compounds to the enzyme before the start of the kinase reaction. The amount of PI3Kβ was chosen to have the enzyme reaction in the linear range and depended on the activity of the individual lot, typical concentrations in assay were in the range of 120 ng/mL. Then the kinase reaction was started by the addition of 1 μL of a solution of adenosine triphosphate (ATP, 40 μM=>final conc. in the 4 μl assay volume is 10 μM) in reaction buffer and the resulting mixture was incubated for a reaction time of 20 min at 22° C.
The reaction was stopped by the addition of 1 μL of an stop solution (containing the biotinylated PIP3 used as a tracer). Then 1 μL detection mix (containing a Europium-labeled anti-GST monoclonal antibody, a GST-tagged PH domain, and Streptavidin-Allophycocyanin) was added and resulting mixture was incubated for 3 h at 22° C. to allow the formation of complexes between the detection reagents and either the PIP3 generated in the kinase reaction, or the biotinylated PIP3 added with the stop solution. Subsequently the amount of energy transfer complex consisting of a Europium-labeled anti-GST monoclonal antibody, a GST-tagged PH domain, biotinylated PIP3 and Streptavidin-Allophycocyanin (APC) was evaluated by measurement of the resonance energy transfer from the Europium-labeled anti-GST monoclonal antibody to the Streptavidin-Allophycocyanin. Therefore, the fluorescence emissions at 620 nm and 665 nm after excitation at 350 nm were measured using a TR-FRET reader, e.g., a Pherastar (BMG Labtechnologies, Offenburg, Germany) or a Viewlux (Perkin-Elmer). The ratio of the emissions at 665 nm and at […] were taken as the measure for the amount of biotinylated PIP3 bound to the GST-tagged PH domain, which is negatively correlated with the amount of PIP3 generated.

Sequence of PI3Kα (complex of human p110α and human p85α) (P42336 whole entry): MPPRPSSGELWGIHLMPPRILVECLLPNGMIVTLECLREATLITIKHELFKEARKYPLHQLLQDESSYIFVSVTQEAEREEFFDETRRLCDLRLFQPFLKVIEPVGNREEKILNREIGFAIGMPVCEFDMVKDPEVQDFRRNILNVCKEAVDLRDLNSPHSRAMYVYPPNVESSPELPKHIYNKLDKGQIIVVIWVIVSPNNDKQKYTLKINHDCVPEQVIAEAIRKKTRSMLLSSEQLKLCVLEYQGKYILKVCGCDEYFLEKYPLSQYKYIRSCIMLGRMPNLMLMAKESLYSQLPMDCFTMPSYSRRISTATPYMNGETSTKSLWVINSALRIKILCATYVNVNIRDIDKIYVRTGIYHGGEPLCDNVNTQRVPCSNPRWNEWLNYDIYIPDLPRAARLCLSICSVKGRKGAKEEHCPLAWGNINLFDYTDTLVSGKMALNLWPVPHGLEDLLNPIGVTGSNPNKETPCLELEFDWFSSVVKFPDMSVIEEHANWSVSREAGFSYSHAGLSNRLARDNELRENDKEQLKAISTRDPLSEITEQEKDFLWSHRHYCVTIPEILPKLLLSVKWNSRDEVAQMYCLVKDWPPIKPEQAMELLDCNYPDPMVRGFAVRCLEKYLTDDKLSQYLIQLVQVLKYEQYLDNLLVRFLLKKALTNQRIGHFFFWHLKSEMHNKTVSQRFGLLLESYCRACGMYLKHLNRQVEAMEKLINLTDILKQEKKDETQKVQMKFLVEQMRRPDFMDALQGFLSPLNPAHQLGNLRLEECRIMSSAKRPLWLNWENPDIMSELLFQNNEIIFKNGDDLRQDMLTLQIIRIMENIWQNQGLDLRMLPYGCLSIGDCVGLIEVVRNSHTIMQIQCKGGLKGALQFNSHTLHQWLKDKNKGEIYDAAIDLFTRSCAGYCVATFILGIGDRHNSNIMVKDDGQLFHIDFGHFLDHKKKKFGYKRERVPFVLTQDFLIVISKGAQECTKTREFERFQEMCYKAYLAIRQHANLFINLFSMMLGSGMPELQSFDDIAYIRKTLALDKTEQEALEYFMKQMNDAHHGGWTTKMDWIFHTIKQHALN
Sequence of PI3Kα (complex of human p110α and human p85α) (P27986 whole entry partner): as the sequence (P27986 whole entry partner, canonical isoform) above

IC50 [1] | IC50 [2] | PI3K beta average IC50/PI3K alpha average IC50 [2] | Structure (SMILES)
< 10 nM | < 10 nM | 5.40 | COc1c(OC[C@@H](O)CN[C@@H](C)c2ccccc2)ccc2c1N=C(NC(=O)c1cnc(N)nc1)N1CCN=C21 (relative stereo) [Example 5, rel-2-Amino-N-(8-{[(2R)-2-hydroxy-3-{[(1R)-1-phenylethyl]amino}propyl]oxy}-7-methoxy-2,3-dihydroimidazo[1,2-c]quinazolin-5-yl)pyrimidine-5-carboxamide]
< 10 nM | < 10 nM | 3.44 | COc1c(OC[C@H](O)CN[C@@H](C)c2ccccc2)ccc2c1N=C(NC(=O)c1cnc(N)nc1)N1CCN=C21 [Example 7, 2-Amino-N-(8-{[(2R)-2-hydroxy-3-{[(1S)-1-phenylethyl]amino}propyl]oxy}-7-methoxy-2,3-dihydroimidazo[1,2-c]quinazolin-5-yl)pyrimidine-5-carboxamide]
< 10 nM | < 10 nM | 7.01 | COc1c(OC[C@@H](O)CN[C@@H](C)c2ccccc2)ccc2c1N=C(NC(=O)c1cnc(N)nc1)N1CCN=C21 [Example 6, 2-Amino-N-(8-{[(2S)-2-hydroxy-3-{[(1S)-1-phenylethyl]amino}propyl]oxy}-7-methoxy-2,3-dihydroimidazo[1,2-c]quinazolin-5-yl)pyrimidine-5-carboxamide]
